In PMC10064330, “Reversible Dual-Covalent Molecular Locking of the 14-3-3/ERRγ Protein–Protein Interaction as a Molecular Glue Drug Discovery Approach” (Journal of the American Chemical Society, 2023):

Target: T1, 14-3-3γ/ERRγ complex (Homo sapiens, UniProt P61981+P62508)
T1 construct: made in house; host or cells: E. coli NiCo21 (DE3)
Assay: Time-dependent fluorescence anisotropy (TD-FA) of ternary complex formation
Format: binding
Method: Time-dependent fluorescence anisotropy (TD-FA) measurements provided insights in the kinetics of ternary complex (14-3-3/ERRγ/lock) formation (Figures S2 and S3). All fragments reached saturation by ∼12 h. […] Carboxamides 4–6 and 8–10 reached saturation within 5 h.
TD-FA experiments were also performed at different pH values to study ternary complex (14-3-3γ/ERRγ/compound) formation and the importance of the imine bond in the molecular lock (Figure 3b,c and Figures S14–S16). […] Similarly, the avidity of the 14-3-3/ERRγ/1 complex at equilibrium was not affected by pH (Figure 3b). In contrast, 5 and 10 elicited an inverse relationship between pH and KD^app (Figure 3c and Figure S14), connected to impaired imine bond formation at low pH.
In contrast, the formation of the ternary complexes of 14-3-3γ/ERRγ/compound with 1, 5, and 10 was time-dependent and pH-responsive (Figure 3b,c and Figures S15 and S16). […] At pH 6.5, the kinetics of disulfide bond formation was 50% slower. For instance, at pH 6.5, the maximum effect of 1 was reached after a 4.2 h incubation, compared to 1.7–0.8 h for pH 7.0–8.0 (Figure S16g). […] Effective disulfide formation thus appeared to aid in the imine bond formation of the dual-covalent locks. Combining the two reactive handles increased the effective molar concentration of the lock within the binding pocket, illustrating the need for dual reactivity and leading to enhanced 14-3-3/ERRγ avidity.
Figure S2. Time resolved fluorescence anisotropy screen. Time dependent results of 14-3-3γ titration to 10 nM fluorescein-labelled ERRγ peptide in presence of 100 µM compound 1-10 (or DMSO as negative control).
Fluorescence anisotropy was measured every 15 minutes for the first 2 hours after which it was measured every hour for 15 hours. The plate was measured one more time after 24 hours incubation.
(1 picture or pasted object on this page, not shown here)
Figure S3. Time-dependent FA-based apparent Kd analysis. Determined apparent K from fluorescence […]
anisotropy binding curves (see figure S1) and plotted over time (top row) for all compounds in this study to show a time dependent decrease in KD (increase in affinity) between 14-3-3γ and ERRγ as induced by the compounds.
Bottom graphs show the normalized version of the top graphs where the KD at t=0h was set to no effect (0%) and […]
Figure S16. Time- and pH dependent FA-based apparent K analysis. (a-c) Determined apparent K from […]
fluorescence anisotropy binding curves (see figure S15) and plotted over time for compounds 1, 5 and 10. Results show a time dependent decrease in KD (increase in affinity) between 14-3-3γ and ERRγ as induced by the compounds over time. […]
temperatures are based on three independent experiments from which the average and standard deviations were determined using excel. […]

T1 sequence (P61981 whole entry, other chains not shown): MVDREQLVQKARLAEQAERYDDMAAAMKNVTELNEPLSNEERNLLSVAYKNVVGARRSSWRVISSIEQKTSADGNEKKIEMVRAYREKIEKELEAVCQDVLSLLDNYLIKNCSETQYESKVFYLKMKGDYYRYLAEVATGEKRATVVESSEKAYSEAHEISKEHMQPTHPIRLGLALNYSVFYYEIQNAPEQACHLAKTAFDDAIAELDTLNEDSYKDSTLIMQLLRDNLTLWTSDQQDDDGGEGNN

## CN(C)CCSSCCN(C)C(=O)c1cccc(F)c1 [compound 1, reference compound]
100 μM compound, TD-FA
  binding kinetics: significantly slower binding kinetics than molecular locks 4–10
pH 6.5, 100 μM compound
  incubation time to reach maximum effect: 4.2 h

## CN(C)CCSSCCN(C)C(=O)c1ccc(C=O)c(F)c1 [compound 5]
100 μM compound, TD-FA
  binding kinetics: fastest reaction kinetics
  time to saturation of ternary complex formation: 2 h
